According to patent publication US9278069B2, “Nanoclusters compositions and methods” (UNIVERSITY OF KANSAS, priority 2005, dated 2016):

What was measured:
[1] = Cascade impaction of diatrizoic acid dry powder and nebulized suspension; assay type: physicochemical; conditions: flow rate ~30 L/min
Procedure: FDA requires characterization of aerosols using cascade impaction, which determines aerosol particle size; indicative of the probable deposition site in the lung. The nanoparticle agglomerate formulation described above was studied using a Tisch Ambient Cascade Impactor. The study was carried out by applying ˜20 mg powder manually into the orifice of the instrument at an air flow rate of […]. Alternatively, the dry powders were suspended in water and applied into the cascade impactor through a nebulizer equipped with an LC Star atomizer. […] Cut-off particle aerodynamic diameters at 30 L/min for each stage of the impactor were: pre-separator (10.00 μm), stage 0 (9.00 μm), stage 1 (5.8 μm), stage 2 (4.7 μm), stage 3 (3.3 μm), stage 4 (2.1 μm), stage 5 (1.1 μm), stage 6 (0.7 μm), stage 7 (0.4 μm) and filter (0 μm). Diatrizoic acid nanoparticle agglomerates deposited on each stage of the impactor were determined by measuring the difference in weight of filters placed on the stages. The percent emitted fraction (% EF) and fine particle fractions of the total dose (FPFTD) were then calculated. In addition, the mass median aerodynamic diameter, MMAD, and geometric standard deviation, GSD, were obtained by a linear fit of the cumulative percent less-than the particle size range by weight plotted on a probability scale as a function of the logarithm of the effective cut-off diameter.

[2] = Cascade impaction of paclitaxel nanoparticle agglomerates (Tisch Ambient Cascade Impactor); assay type: physicochemical
Procedure: Aerodynamic characteristics of selected nanoparticle agglomerates were studied in vitro using a Tisch Ambient Cascade Impactor (Tisch Environmental, Inc., Ohio). The study was carried out by applying ˜20 mg powder manually into the orifice of the instrument at an air flow rate of ˜30 L/min. Cut-off particle aerodynamic diameters for each stage of the impactor were: pre-separator ([…]), stage 0 ([…]), stage 1 (5.8 mm), stage 2 (4.7 mm), stage 3 (3.3 mm), stage 4 (2.1 mm), stage 5 (1.1 mm), stage 6 (0.7 mm), stage 7 (0.4 mm) and filter (0 mm). Nanoparticle agglomerates deposited on each stage of the impactor were determined by measuring the difference in weight of filters placed on the stages. The mass median aerodynamic diameter, MMAD, and geometric standard deviation, GSD, were obtained by a linear fit of the cumulative percent less-than the particle size range by weight plotted on a probability scale as a function of the logarithm of the effective cut-off diameter.

[3] = almost all organic solvent; cited from earlier work
A549 cells = test: Cytotoxicity of budesonide formulations, CellTiter 96 MTS assay; assay type: cell-based; conditions: up to 5 mg/mL, end of 12 hours
Procedure: In this experiment, 8×10^4 A549 cells/well were seeded in 96-well microtiter plates. At the end of the incubation period (12 h), […] of MTS reagent solution was added to each well and incubated for 3 hours at 37° C. The absorbance was measured at 490 nm using a microtiter plate reader (SpectraMax, M25, Molecular Devices Corp., CA). The percentage of viable cells with all tested concentrations was calculated relative to untreated cells.

[4] = Dispersion stability of budesonide in model propellant HPFP; assay type: physicochemical; conditions: dispersed in HPFP
Procedure: A trial run for determining the feasibility of budesonide nanoclusters as Metered Dose Inhaler formulations was performed. Budesonide nanoclusters and pure budesonide (milled) were dispersed in model propellant HPFP (2H, 3H perfluoropentane) and their dispersion stability was analyzed. HPFP has similar physico-chemical properties to MDI propellants such as […]. Previous literature studies indicate that dispersion stability of therapeutic molecules is similar in both HPFP and HFA227ea.

Solubility = assay type: physicochemical
[5] = Dissolution of insulin particles in PBS (pH 7.4); assay type: physicochemical; conditions: PBS pH 7.4, 37 °C, FIG. 38
Procedure: Approximately 6 mg of each insulin particle sample was suspended in PBS (pH 7.4). The solution was placed in a 100,000 Dalton biotech grade cellulose ester dialysis tube (Spectrum Labs, Rancho Dominiguez, Calif.) and placed in PBS solution to a final volume of 45 mL. All samples were incubated at 37° C. and shaken at 50 rpm on a shaker table. 1 mL aliquots were taken at various time points up to 8 hours from the bulk solution and replaced with 1 mL of fresh PBS. The insulin concentration was measured using a Coomassie Plus colorimetric protein quantification assay (Thermo Fisher Scientific, Waltham, Mass.). A calibration curve was used to correlate the insulin concentration with the measured absorbance, with insulin concentrations ranging between 1 and 25 μg/mL used as the standard. Dissolved mass was calculated from the measured concentration, and was then normalized to the total loaded mass to determine the percent dissolved. All experiments were performed in triplicate. Analysis of variance (ANOVA) was used to determine statistically significant differences between groups (p<0.05). Comparisons among groups were done using a Fisher's F-test.

[6] = Aerodynamic diameter by time-of-flight measurement (Aerosizer LD); assay type: physicochemical; conditions: insulin powders
Procedure: (§1) The aerodynamic size distributions of the agglomerate powders were measured directly from lyophilized powder by time-of-flight measurement using an Aerosizer LD (Amherst Instruments) equipped with a 700 mm aperture operating at 6 psi.
as §1, with “The particle size of the dispersed nanoparticle agglomerates as well as the resuspended lyophilized powder was measured using a Coulter Multisizer 3. The” for “The”, “μm” for “mm”
The aerodynamic diameters of the lyophilized powders were determined using an Aerosizer LD (Amherst Process Instruments Inc.). Data were collected over ˜70 seconds under high shear force (˜3.4 kPa) using a 700 μm nozzle.
The particle size was determined from the lyophilized powder using particle time-of-flight analysis. The particle mass mean aerodynamic diameter indentified using this analytical method was 1.0±0.1 μm, which is an ideal particle size for accessing the lung periphery.
Aerodynamic size distribution of the lyophilized powder was obtained by analyzing the time of flight measurements from an Aerosizer LD (Amherst Instruments) equipped with a 700 μm and operating 4 psi. […]

Molecule: CC(=O)Nc1c(I)c(NC(C)=O)c(I)c(C(=O)O)c1I [Diatrizoic acid (powder), Diatrizoic acid]
- % EF (percent emitted fraction) [1]: 70 ± 1%
- % FPF (fine particle fraction) <3.3 [1]: 4 ± 2^ %
- % FPF (fine particle fraction) <5.7 [1]: 21 ± 2%
- GSD (geometric standard deviation) [1]: 2 ± 0.1
- MMAD (mass median aerodynamic diameter obtained from cascade impactor) [1]: 9 ± 0.1

Molecule: CC(=O)Nc1c(I)c(NC(C)=O)c(I)c(C(=O)O)c1I [Diatrizoic acid (suspen.), Diatrizoic acid]
- % EF (percent emitted fraction) [1]: 75 ± 5%
- % FPF (fine particle fraction) <3.3 [1]: 10 ± 7%
- % FPF (fine particle fraction) <5.7 [1]: 33 ± 6%
- GSD (geometric standard deviation) [1]: 2 ± 0.1
- MMAD (mass median aerodynamic diameter obtained from cascade impactor) [1]: 7 ± 1

Molecule: CC(=O)O[C@H]1C(=O)[C@@]2(C)[C@H]([C@H](OC(=O)c3ccccc3)[C@]3(O)C[C@H](OC(=O)[C@H](O)[C@@H](NC(=O)c4ccccc4)c4ccccc4)C(C)=C1C3(C)C)[C@]1(OC(C)=O)CO[C@@H]1C[C@@H]2O [Pure paclitaxel powder, Paclitaxel]
- GSD (geometric standard deviation) ([2]; cascade impactor, ~30 L/min): 2.2 ± 0.03
- MMAD (mass median aerodynamic diameter) ([2]; cascade impactor, ~30 L/min): 0.08 ± 0.02
- % RF (percent respirable fraction) <3.3 ([2]; flow rate ~30 L/min): 0%
- % RF (percent respirable fraction) <5.7 ([2]; flow rate ~30 L/min): 0.39 ± 0.3%
- % EF (percent emitted fraction) ([2]; lyophilized NA, flow rate ~30 L/min): 68.3 ± 6.1%

Molecule: CO[C@H]1/C=C/O[C@@]2(C)Oc3c(C)c(O)c4c(O)c(c(/C=N/N5CCN(C)CC5)c(O)c4c3C2=O)NC(=O)/C(C)=C\C=C\[C@H](C)[C@H](O)[C@@H](C)[C@@H](O)[C@@H](C)[C@H](OC(C)=O)[C@@H]1C [Rifampicin]
- solubility in organic solvent [3]: freely soluble

Molecule: CCCC1O[C@@H]2C[C@H]3[C@@H]4CCC5=CC(=O)C=C[C@]5(C)[C@H]4[C@@H](O)C[C@]3(C)[C@]2(C(=O)CO)O1 (some centres unmarked) [Stock budesonide, Budesonide]
- cytotoxicity (A549 cells): did not show any significant cytotoxicity

Molecule: CCCC1O[C@@H]2C[C@H]3[C@@H]4CCC5=CC(=O)C=C[C@]5(C)[C@H]4[C@@H](O)C[C@]3(C)[C@]2(C(=O)CO)O1 (some centres unmarked) [milled budesonide, Budesonide]
- dispersion stability (creaming) [4]: clearly visible layer was seen at 1 hr
- dispersion stability (creaming) ([4]; listed as jet milled budesonide): complete creaming

Molecule: [H]/N=C(/N)N[C@H]1[C@H](O)[C@@H](O)[C@H](O[C@@H]2O[C@@H](C)[C@](O)(C=O)[C@H]2O[C@@H]2O[C@@H](CO)[C@H](O)[C@@H](O)[C@@H]2NC)[C@@H](N/C(N)=N\[H])[C@@H]1O [streptomycin, Streptomycin]
- solubility in acetone and ethanol (Solubility): poorly soluble
- solubility in water (Solubility): freely water soluble

Molecule: Unprocessed: Lyophilized insulin powder from bovine pancreas (0.5% zinc content)
- insulin dissolution behaviour [5]: follows Higuchi dissolution kinetics
- daero [6]: 4.117 ± 1.852 μm
